Assay results published in patent US5196094A, “Separation of 1,1,1-trichloroethane from the lower alcohols by extractive distillation” (priority 1991, dated 1993).
Each block holds one compound with its values, some of them ahead of it.

Assays:
[1] = Vapor-liquid equilibrium still, separation of 1,1,1-trichloroethane from ethanol; assay type: physicochemical; settings: 1,1,1-trichloroethane from ethanol
[2] = Vapor-liquid equilibrium still, separation of 1,1,1-trichloroethane from n-propanol; assay type: physicochemical
[3] = Vapor-liquid equilibrium still, separation of 1,1,1-trichloroethane from t-butanol; assay type: physicochemical
[4] = minimum boiling azeotrope with 1,1,1-trichloroethane; cited from earlier work
[5] = Vapor-liquid equilibrium still, separation of 1,1,1-trichloroethane from methanol; assay type: physicochemical
[6] = Vapor-liquid equilibrium still, separation of 1,1,1-trichloroethane from 2-butanol; assay type: physicochemical
[7] = Vapor-liquid equilibrium still, separation of 1,1,1-trichloroethane from isopropanol; assay type: physicochemical
[8] = Run in glass perforated plate rectification column, methanol; assay type: physicochemical; settings: 1 h
Protocol: A solution comprising 250 grams of the 1,1,1-trichloroethane-methanol azeotrope was placed in the stillpot of a 7.3 theoretical plate glass perforated plate rectification column. […] The temperature of the extractive agent as it entered the top of the column was 65° C. After establishing the feed rate of the extractive agent, the heat input to the 1,1,1-trichloroethane-methanol in the stillpot was adjusted to give a total reflux rate of 40 ml/min. After 1.5 hours operation, overhead and bottoms samples were collected and analysed by gas chromatography. The overhead analysis was 90.2% 1,1,1-trichloroethane, 9.8% methanol and the bottoms analysis was 0.8% 1,1,1-trichloroethane, 99.2% methanol.

[9] = Run in glass perforated plate rectification column, ethanol; assay type: physicochemical; settings: 1 h
Protocol: (§1) A solution comprising 250 grams of the 1,1,1-trichloroethane ethanol azeotrope was placed in the stillpot of the 7.3 theoretical plate rectification column. […] The temperature of the extractive agent as it entered the top of the column was 70° C. After establishing the feed rate of the extractive agent, the heat input to the 1,1,1-trichloroethane ethanol in the stillpot was adjusted to give a total reflux rate of 40 ml/min. After 1.5 hours operation, overhead and bottoms samples were collected and analysed.

[10] = Run in glass perforated plate rectification column, n-propanol; assay type: physicochemical
Protocol: A solution comprising 250 grams of the 1,1,1-trichloroethane-n-propanol azeotrope was placed in the stillpot of the 7.3 theoretical plate rectification column. […] The temperature of the extractive agent as it entered the top of the column was 75° C. After establishing the feed rate of the extractive agent, the heat input to the 1,1,1-trichloroethane […] in the stillpot was adjusted to give a total reflux rate of 40 ml/min. After 1.5 hours operation, overhead and bottoms samples were collected and analysed. […] This gives an average relative volatility of 2.33 for each theoretical plate.

[11] = Run in glass perforated plate rectification column, isopropanol; assay type: physicochemical
Protocol: as §1, with “1,1,1-trichloroethane-isopropanol” for “1,1,1-trichloroethane ethanol”, “73°” for “70°”

[12] = Run in glass perforated plate rectification column, 2-butanol; assay type: physicochemical
Protocol: A solution comprising 250 grams of the 1,1,1-trichloroethane-2-butanol azeotrope was placed in the stillpot of the 7.3 theoretical plate rectification column. […] The temperature of the extractive agent as it entered the column was 83° C. After establishing the feed rate of the extractive agent, the heat input to the 1,1,1-trichloroethane-2-butanol in the stillpot as adjusted to give a total reflux rate of 40 ml/min. After 1.5 hours operation, overhead and bottoms samples were collcted and analysed. The overhead analysis was 99.7% 1,1,1-trichloroetahne, 0.3% 2-butanol and the bottoms analysis was 55.1% 1,1,1-trichloroethane, 44.9% 2-butanol. This gives an average relative volatility of 2.15 for each theoretical plate.

[13] = Run in glass perforated rectification column, t-butanol; assay type: physicochemical
Protocol: A solution comprising 250 grams of the 1,1,1-trichloroethane-t-butanol azeotrope was placed in the stillpot of the 7.3 theoretical plate rectification column. […] The temperature of the extractive agent as it entered the top of the column was 80° C. After establishing the feed rate of the extractive agent, the heat input to the 1,1,1-trichloroethane-t-butanol in the stillpot was adjusted to give a total reflux rate of 40 ml/min. After 1.5 hours operation, overhead and bottoms samples were collected and analysed. The overhead analysis was 95.7% 1,1,1-trichloroethane, 4.3% t-butanol and the bottoms analysis was 33.5% 1,1,1-trichloroethane, 66.5% t-butanol. This gives an average relative volatility of 1.68 for each theoretical plate.

[14] = 1,1,1-trichloroethane from t-butanol
[15] = 1,1,1-trichloroethane from methanol, vapor-liquid equilibrium still
[16] = 1,1,1-trichloroethane from 2-butanol, vapor-liquid equilibrium still
[17] = 70 g azeotrope, 30 g agent, refluxed eight hours
[18] = 1,1,1-trichloroethane from n-propanol, vapor-liquid equilibrium still
[19] = […], average for each theoretical plate
[20] = * Brings out t-Butanol as Overhead

Structure (SMILES): CC(C)CO [Isobutanol]
- Relative Volatility [1]: 1.35
- Relative Volatility [2]: 2.2
- Relative Volatility [3, 14]: 1.2

Structure (SMILES): CO [methanol]
- 1,1,1-trichloroethane content of azeotrope [4]: 20%
- azeotrope boiling point [4]: 61 °C

- Relative Volatility [5, 15]: 3.3
- Relative Volatility [1]: 3.2
- Relative Volatility [6, 16]: 2.8
- Relative Volatility [3, 14]: 1.3
Structure (SMILES): O=C1OCCO1 [Ethylene carbonate]

Structure (SMILES): CCOCCO [Ethylene glycol ethyl ether]
- Relative Volatility [1]: 2.5
- Relative Volatility [2]: 3.6
- Relative Volatility [6]: 3.1
- Relative Volatility [3, 14]: 2.2

Structure (SMILES): CC1=CC(=O)CC(C)(C)C1 [Isophorone]
- Relative Volatility [1]: 1.55
- Relative Volatility [6, 16]: 2.0
- Relative Volatility [3, 14]: 1.4

Structure (SMILES): C[S+](C)[O-] [Dimethylsulfoxide]
- liquid composition, 1,1,1-trichloroethane [5, 17]: 11%
- liquid composition, methanol [5, 17]: 89%
- vapor composition, 1,1,1-trichloroethane [5, 17]: 24.2%
- vapor composition, methanol [5, 17]: 75.8%
- Relative Volatility [2, 18]: 2.3
- Relative Volatility [7]: 2.5
- Relative Volatility [6]: 2.2
- Relative Volatility [3, 14]: 1.7
- Relative Volatility [8]: 2.13
- Weight % CH3 CCl3 ([8]; bottoms): 3.5%
- Weight % Methanol ([8]; bottoms): 96.5%
- Weight % CH3 CCl3 ([8]; overhead): 90.2%
- Weight % Methanol ([8]; overhead): 9.8%
- Relative Volatility [9]: 2.1
- Weight % CH3 CCl3 ([9]; bottoms): 13.6%
- Weight % Ethanol ([9]; bottoms): 86.4%
- Weight % CH3 CCl3 ([9]; overhead): 97.3%
- Weight % Ethanol ([9]; overhead): 2.7%
- Relative Volatility ([10]; 1 h): 2.17
- Relative Volatility [10, 19]: 2.33
- Weight % CH3 CCl3 ([10]; bottoms, 1 h): 40%
- Weight % n-Propanol ([10]; bottoms, 1 h): 60%
- Weight % CH3 CCl3 ([10]; overhead, 1 h): 99.5%
- Weight % n-Propanol ([10]; overhead, 1 h): 0.5%
- Relative Volatility ([11]; 1 h): 2.5
- Relative Volatility [11, 19]: 2.2
- Weight % CH3 CCl3 ([11]; bottoms, 1 h): 27.8%
- Weight % Isopropanol ([11]; bottoms, 1 h): 72.2%
- Weight % CH3 CCl3 ([11]; overhead, 1 h): 99.6%
- Weight % Isopropanol ([11]; overhead, 1 h): 0.4%
- Relative Volatility ([12]; 1 h): 2.1
- Relative Volatility [12, 19]: 2.15
- Weight % 2-Butanol ([12]; bottoms, 1 h): 46.9%
- Weight % CH3 Cl3 ([12]; bottoms, 1 h): 53.1%
- Weight % 2-Butanol ([12]; overhead, 1 h): 0.4%
- Weight % CH3 Cl3 ([12]; overhead, 1 h): 99.6%
- Relative Volatility ([13]; 1 h): 1.68
- Relative Volatility [13, 19]: 1.68
- Weight % CH3 CCl3 ([13]; bottoms, 1 h): 43.4%
- Weight % t-Butanol ([13]; bottoms, 1 h): 56.6%
- Weight % CH3 CCl3 ([13]; overhead, 1 h): 97.1%
- Weight % t-Butanol ([13]; overhead, 1 h): 2.9%

Structure (SMILES): CC(=O)OCc1ccccc1 [Benzyl acetate]
- Relative Volatility [5]: 2.5
- Relative Volatility [1]: 1.2
- Relative Volatility [7]: 1.55
- Relative Volatility [6, 16]: 1.7

Structure (SMILES): CN(C)C=O [Dimethylformamide]
- Relative Volatility [5]: 2.8
- Relative Volatility [2]: 2.8
- Relative Volatility [7]: 1.55
- Relative Volatility [6]: 2.8

Structure (SMILES): CCCCOCCO [Ethylene glycol butyl ether]
- Relative Volatility [5, 15]: 3.2
- Relative Volatility [2, 18]: 2.0
- Relative Volatility [6, 16]: 2.8
- Relative Volatility [3, 14]: 1.7

Structure (SMILES): CC(C)CCO [Isoamyl alcohol]
- Relative Volatility [5]: 2.2
- Relative Volatility [2]: 3.6
- Relative Volatility [6]: 1.6
- Relative Volatility [3, 14]: 3.0

Structure (SMILES): CCCCOCCOC(C)=O [Ethylene glycol butyl ether acetate]
- Relative Volatility [5, 15]: 2.1
- Relative Volatility [1]: 1.2
- Relative Volatility [7]: 1.3
- Relative Volatility [6]: 1.8

Structure (SMILES): CCCCOCCOCCO [Diethylene glycol butyl ether]
- Relative Volatility [5, 15]: 2.1
- Relative Volatility [2, 18]: 2.8
- Relative Volatility [6]: 2.7
- Relative Volatility [3, 14]: 1.5

Structure (SMILES): CCOC(=O)CC(C)C [Ethyl isovalerate]
- Relative Volatility [5]: 2.7
- Relative Volatility [1]: 1.4
- Relative Volatility [7]: 1.6
- Relative Volatility [6]: 1.6

Structure (SMILES): O=S1(=O)CCCC1 [Sulfolane]
- Relative Volatility [1]: 2.2
- Relative Volatility [7]: 1.4
- Relative Volatility [6]: 2.7
- Relative Volatility [3, 14]: 1.4

Structure (SMILES): CCCCCCOCCOCCO [Diethylene glycol hexyl ether]
- Relative Volatility [5, 15]: 4.2
- Relative Volatility [2, 18]: 2.0
- Relative Volatility [6, 16]: 2.3
- Relative Volatility [3, 14]: 1.5

Structure (SMILES): CC1COC(=O)O1 (stereo not shown) [Propylene carbonate]
- Relative Volatility [1]: 2.2
- Relative Volatility [2, 18]: 2.0
- Relative Volatility [6, 16]: 2.4
- Relative Volatility [3, 14]: 1.5

Structure (SMILES): COC(=O)c1ccccc1O [Methyl salicylate]
- Relative Volatility [1]: 1.55
- Relative Volatility [2]: 1.3
- Relative Volatility ([7]; * Brings Isopropanol out as Overhead, vapor-liquid equilibrium still): 1.45
- Relative Volatility [6]: 1.3
- Relative Volatility [3, 20]: 1.3

Structure (SMILES): CC(=O)OCCOC(C)=O [Ethylene glycol diacetate]
- Relative Volatility [1]: 1.7
- Relative Volatility [2]: 1.7
- Relative Volatility [3, 14]: 1.3

Structure (SMILES): CCCCC(=O)OCC [Ethyl n-valerate]
- Relative Volatility [5]: 2.7
- Relative Volatility [1]: 1.6
- Relative Volatility [7]: 1.35
- Relative Volatility [6]: 1.5

Structure (SMILES): CCCCO [1-Butanol]
- Relative Volatility [1]: 3.5
- Relative Volatility [2, 18]: 3.9
- Relative Volatility [3, 14]: 2.7

Structure (SMILES): CCCO [n-propanol]
- 1,1,1-trichloroethane content of azeotrope [4]: 85%

Structure (SMILES): CC(C)COCC(C)O (stereo not shown) [Propylene glycol isobutyl ether]
- Relative Volatility [5]: 2.5
- Relative Volatility [6, 16]: 2.4
- Relative Volatility [3, 14]: 1.4

Structure (SMILES): CCC(C)O (stereo not shown) [2-Butanol]
- Relative Volatility [1]: 2.0
- 1,1,1-trichloroethane content of azeotrope [4]: 90%
- azeotrope boiling point [4]: 70.5 °C

Structure (SMILES): CCOCCOCCO [Diethylene glycol ethyl ether]
- Relative Volatility [5]: 2.9
- Relative Volatility [1]: 1.2
- Relative Volatility [6, 16]: 2.8
- Relative Volatility [3, 14]: 1.4

Structure (SMILES): CC(O)COc1ccccc1 (stereo not shown) [Propylene glycol phenyl ether]
- Relative Volatility [5]: 3.1
- Relative Volatility [2, 18]: 3.4
- Relative Volatility [7]: 1.6
- Relative Volatility [6, 16]: 2.4

Structure (SMILES): CC(C)O [isopropanol]
- 1,1,1-trichloroethane content of azeotrope [4]: 80%

Structure (SMILES): CC(C)(C)O [t-butanol]
- 1,1,1-trichloroethane content of azeotrope [4]: 80%
- azeotrope boiling point [4]: 66 °C

Structure (SMILES): CCCCCCO [Hexyl alcohol]
- Relative Volatility [2]: 2.5
- Relative Volatility [3, 20]: 1.2

Structure (SMILES): CC(C)COC(=O)C(C)C [Isobutyl isobutyrate]
- Relative Volatility [1]: 3.3
- Relative Volatility [7]: 1.3
- Relative Volatility [6]: 1.5

Structure (SMILES): COCCOCCO [Diethylene glycol methyl ether]
- Relative Volatility [5, 15]: 3.3
- Relative Volatility [1]: 3.3
- Relative Volatility [2]: 2.7
- Relative Volatility [6]: 3.0
- Relative Volatility [3, 14]: 2.2

Structure (SMILES): CCO [ethanol]
- 1,1,1-trichloroethane content of azeotrope [4]: 75%
- azeotrope boiling point [4]: 63 °C

Structure (SMILES): COCCO [Ethylene glycol methyl ether]
- Relative Volatility [1]: 1.95
- Relative Volatility [2]: 4.4
- Relative Volatility [6]: 4.5
- Relative Volatility [3, 14]: 3.1

Structure (SMILES): COCC(C)O (stereo not shown) [Propylene glycol methyl ether]
- Relative Volatility [5, 15]: 3.1
- Relative Volatility [1]: 2.0
- Relative Volatility [2, 18]: 4.2
- Relative Volatility ([7]; 1,1,1-trichloroethane from isopropanol, vapor-liquid equilibrium still): 2.3
- Relative Volatility [6, 16]: 3.9
- Relative Volatility [3, 14]: 1.7

Structure (SMILES): OCCOc1ccccc1 [Ethylene glycol phenyl ether]
- Relative Volatility [5]: 3.1
- Relative Volatility [2]: 2.5
- Relative Volatility [6, 16]: 2.0
- Relative Volatility [3, 14]: 1.3
